Measured values reported in the SangsterLogP compilation.
Values belong to the compound of their own block, whether it stands above or below them. Peptide text beside a SMILES is read from it. * marks the point of attachment. NHtBu = CC(C)(C)N*

Legend:
[1] = method code SF-HPLC, from DOI: 10.1016/0378-5173(86)90071-2; conditions: pH 7.4
[2] = method code SF-AS, from DOI: 10.1021/acs.inorgchem.5b01238, PMID: 26280387
[3] = method code SF-AS, from DOI: 10.1021/es00012a023, PMID: 22148214
[4] = method code SF-AS, from DOI: 10.1016/0006-2952(93)90433-w, PMID: 8494536; conditions: pH 7.4
[5] = method code SF-HPLC, from DOI: 10.1248/cpb.41.694
[6] = not given; remark: listed apart in the source
[7] = not given; remark: listed apart in the source
[8] = method code SF-RC, from DOI: 10.1023/a:1015892313856, PMID: 1495896
[9] = method code SF, from DOI: 10.1016/0223-5234(94)90060-4; conditions: pH 7.4
[10] = method code SF-NMR, from DOI: 10.1021/jm00157a023, PMID: 3806574
[11] = method code SF-HPLC, from Yu, G.; Xu, X. (1993). Determination of the 1-octanol/water partition coefficient of nitro-PAHs. Huanjing Huaxue, 12(4)299-303.
[12] = not given; remark: listed apart in the source
[13] = method code SF-HPLC, from DOI: 10.1002/jps.10072, PMID: 11920751; conditions: pH 7.4
[14] = method code SF-AS, from DOI: 10.1021/jf60220a002
[15] = not given; remark: listed apart in the source
[16] = method code SF, from DOI: 10.3109/00498258709043934, PMID: 3564538
[17] = not given; remark: listed apart in the source
[18] = method code SF-HPLC, from DOI: 10.1007/s00216-006-0868-5, PMID: 17082876
[19] = not given; remark: listed apart in the source
[20] = not given; remark: listed apart in the source
[21] = not given; remark: listed apart in the source
[22] = not given; remark: listed apart in the source
[23] = method code SF-AS, from DOI: 10.1002/jps.2600611027, PMID: 5072421
[24] = not given; remark: listed apart in the source
[25] = not given; remark: listed apart in the source
[26] = method code SF, from DOI: 10.1021/jm200015a, PMID: 21630666; conditions: pH 7.4
[27] = not given; remark: listed apart in the source

- logD [1]: 2
SMILES: CC(C)(C)C(=O)OCOc1ccccc1C(N)=O

- logP [2]: 1.73
SMILES: CCSC(=S)C=C(O)c1cccc(O)c1

- logP [3]: 1.64
SMILES: CC(C)OC(=O)CS(=O)c1ccc([N+](=O)[O-])cc1 (stereo not drawn)

- logP: 2.5
SMILES: COc1ccc(C(C(=O)O)C(C)C)cc1 (stereo not drawn)

- logD [4]: 2.42
SMILES: CS(=O)CCCOc1ccc2ccccc2c1 (stereo not drawn)

- logP [5]: 1.98
SMILES: CN(C)C(=O)OCc1cccc([N+](=O)[O-])c1

- logP [6]: 6.89
SMILES: Brc1cc(Br)c(-c2cc(Br)ccc2Br)c(Br)c1

- logP [7]: 3.7
SMILES: CC12CCC(c3c1ssc3=S)C2(C)C (stereo not drawn)

- logD [9]: 1.23
SMILES: CC(C=CC1=C(C)CCCC1(C)C)=CC=CC(C)=CC(=O)Nc1ccn(C2CSC(CO)O2)c(=O)n1 (stereo not drawn)

- logP [11]: 3.69
SMILES: O=[N+]([O-])c1cccc(-c2ccccc2)c1

- logP [5]: 2.86
SMILES: CSc1ccc(COC(=O)N(C)C)cc1

- logP [7]: 4.2
SMILES: S=c1ssc(-c2ccccc2)c1-c1ccccc1

- logP [12]: 3.74
SMILES: O=S(=O)(Nc1ccccc1)c1c(O)c(Cl)cc(Cl)c1Cl

- logP [3]: 2.22
SMILES: CC(C)OC(=O)CS(=O)c1ccc(Cl)cc1[N+](=O)[O-] (stereo not drawn)

- logP [15]: 3.13
SMILES: CC1=C(C)C(O)N(c2ccc(C(F)(F)F)cc2)C1=O (stereo not drawn)

- logP [16]: 3.75
SMILES: CC(C)OC(=O)C(C(=O)OC(C)C)=C1SC=CS1

- logD [13]: -1.08
SMILES: CC(=O)OCC(CO)OCn1cnc2c(=O)[nH]c(N)nc21 (stereo not drawn)

- logP [19]: 3.87
SMILES: Cc1cccc2ccccc12

- logP [20]: 0.8
SMILES: Cc1cn(C2CC(N=[N+]=[N-])C(COC(=O)c3ccncc3)O2)c(=O)[nH]c1=O (stereo not drawn)

- logP [12]: 4.02
SMILES: Cc1ccccc1NS(=O)(=O)c1c(O)c(Cl)cc(Cl)c1Cl

- logP [22]: 7.58
SMILES: Clc1cc(Cl)c2oc3c(Cl)c(Cl)c(Cl)c(Cl)c3c2c1

- logD ([8]; pH 2.0): -0.67
SMILES: CC(=O)NC(C)C(=O)NC(CCC(N)=O)C(=O)NC(C)C(=O)NC(C)(C)C (stereo not drawn) (Ac-Ala-Gln-Ala-NHtBu; configuration not given here)

- logP [23]: 3.75
SMILES: CCCCCc1ccncc1

- logD [1]: 0.52
SMILES: CC(=O)OCOc1ccccc1C(N)=O

- logP [2]: 1.71
SMILES: CSC(=S)C=C(O)c1cccc(O)c1

- logP [24]: 0.07
SMILES: CC1(c2ccncc2)CCC(=O)NC1=O (stereo not drawn)

- logP [20]: -1.25
SMILES: CC(=O)OCC1OC(n2ccc(N)nc2=O)C(O)C1O (stereo not drawn)

- logP [5]: 0.77
SMILES: CN(C)C(=O)OCc1ccc(C(N)=O)cc1

- logP [16]: 3.93
SMILES: CCCOC(=O)C(C(=O)OCCC)=C1SC=CS1

- logD [26]: 0.9
SMILES: O=c1c2c([nH]c3ccc(Br)cc13)CCSC2

- logP: 3.03
SMILES: CC(C)C(C(=O)O)c1ccc(OC(F)F)cc1 (stereo not drawn)

- logP [17]: 4.07
SMILES: COC(=O)C(C)Oc1ccc(Oc2ncc(C(F)(F)F)cc2Cl)cc1 (stereo not drawn)

- logP [27]: 1.27
SMILES: CC(C)(C)NCC(O)COc1cccc2c1C[C@H](O)[C@H](O)C2 (stereo partly drawn)

- logP [6]: 6.49
SMILES: Brc1ccc(-c2cc(Br)ccc2Br)c(Br)c1

- logD ([8]; pH 2.0): -0.74
SMILES: CC(=O)NC(C)C(=O)NC(CC(=O)O)C(=O)NC(C)(C)C (stereo not drawn) (Ac-Ala-Asp-NHtBu; configuration not given here)

- logP [24]: 4.04
SMILES: CCCCCCCCC1(c2ccncc2)CCC(=O)NC1=O (stereo not drawn)

- logP [27]: 1.65
SMILES: COCCc1ccc(OCC(O)CNC(C)C)cc1 (stereo not drawn)

- logP [12]: 3.66
SMILES: O=S(=O)(Nc1ccc(Cl)cc1)c1cc(Cl)cc(Cl)c1O

- logD [13]: -0.07
SMILES: CCCCC(=O)OCC(CO)OCn1cnc2c(=O)[nH]c(N)nc21 (stereo not drawn)

- logP [23]: 4.35
SMILES: CCCCCCc1ccncc1

- logD [26]: 3.8
SMILES: O=c1c2c([nH]c3cc(-c4ccc(-c5ccc(OC(F)(F)F)cc5)cc4)ccc13)CCCC2

- logP [15]: 0.51
SMILES: CC1=C(C)C(O)N(c2cccc(N)c2)C1=O (stereo not drawn)

- logD [9]: 1.24
SMILES: CC(C=CC1=C(C)CCCC1(C)C)=CC=CC(C)=CC(=O)OCC1OC(n2ccc(N)nc2=O)CS1 (stereo not drawn)

- logP [2]: 1.9
SMILES: CSC(=S)C=C(O)c1ccc(O)cc1

- logP [24]: 2.85
SMILES: CCCCCCC1(c2ccncc2)CCC(=O)NC1=O (stereo not drawn)

- logD [26]: 3.6
SMILES: Cc1cc(-c2ccc(OC(F)(F)F)cc2)ccc1-c1ccc2[nH]c3c(c(=O)c2c1)CSCC3

Continued, compound first:

SMILES: CC(C)C(C(=O)O)c1ccc(Cl)cc1 (stereo not drawn)
- logP: 3.38

SMILES: CC(=O)N[C@@H](C)C(=O)NCC(=O)NC(C)(C)C
- logD ([8]; pH 7.2): -0.6

SMILES: CCOCCOCCOP(=O)(N1CC1(C)C)N1CC1(C)C (stereo not drawn)
- logP [10]: 0.22

SMILES: O=[N+]([O-])c1ccc2ccc3cccc4ccc1c2c34
- logP [11]: 5.06

SMILES: CS(=O)(=O)c1cccc2ccccc12
- logD [4]: 1.74

SMILES: CCC(=O)OCC(CO)OCn1cnc2c(=O)[nH]c(N)nc21 (stereo not drawn)
- logD [13]: -0.92

SMILES: CCNP(=O)(OCC)O/N=C(/C#N)c1ccc(OC)cc1 (stereo not drawn)
- logP [14]: 2.39

SMILES: CCOP(=O)(NC)O/N=C(/C#N)c1ccc(Cl)cc1 (stereo not drawn)
- logP [14]: 2.5

SMILES: CCCN(CCCl)c1c([N+](=O)[O-])cc(C(F)(F)F)cc1[N+](=O)[O-]
- logP [17]: 4.63

SMILES: N=C(Nc1ccccc1)Nc1ccccc1
- logP [18]: 2.85

SMILES: CC(=O)OC[C@H]1O[C@@H](n2cc(C)c(=O)[nH]c2=O)C[C@@H]1N=[N+]=[N-]
- logP [20]: 0.45

SMILES: Clc1cc2oc3c(Cl)c(Cl)c(Cl)c(Cl)c3c2cc1Cl
- logP [21]: 6.6

SMILES: CCOC(=O)C(C(=O)CC)=C1SC=CS1
- logP [16]: 2.9

SMILES: O=P(N1CCOCCOCCOCCOCC1)(N1CC1)N1CC1
- logP [10]: 0.12

SMILES: CCCCCCCc1ccncc1
- logP [23]: 5

SMILES: Cc1ccc2cc3ccccc3cc2c1
- logD [4]: 5

SMILES: Brc1c(Br)c(Br)c(Oc2c(Br)c(Br)c(Br)c(Br)c2Br)c(Br)c1Br
- logP [6]: 9.56

SMILES: CC(=O)OCC1OC(n2ccc(N)nc2=O)CS1 (stereo not drawn)
- logD [9]: 0.51

SMILES: CCc1ccc2ccccc2c1
- logP [19]: 4.38

SMILES: Cc1cn(C2CC(N=[N+]=[N-])C(COC(=O)C(=O)NC(Cc3ccccc3)C(=O)O)O2)c(=O)[nH]c1=O (stereo not drawn)
- logP [25]: 1.2

SMILES: Clc1cc2c(oc3cc(Cl)c(Cl)c(Cl)c32)c(Cl)c1Cl
- logP [21]: 6.6

SMILES: Clc1cc(Cl)c2oc3c(Cl)cc(Cl)c(Cl)c3c2c1Cl
- logP [22]: 7.65

SMILES: O=[N+]([O-])c1c2ccccc2cc2ccccc12
- logP [11]: 4.21

SMILES: Cc1cc2ccccc2cc1C
- logP [19]: 4.4

SMILES: Clc1cc2c(c(Cl)c1Cl)Oc1cc(Cl)c(Cl)c(Cl)c1O2
- logP [21]: 7.8

SMILES: O=S1(=O)OC(c2cc(Br)c(O)c(Br)c2)(c2cc(Br)c(O)c(Br)c2)c2ccccc21
- logP [18]: 4.88

SMILES: CCNP(=O)(OCC)ON=C(C#N)c1ccc([N+](=O)[O-])cc1 (stereo not drawn)
- logP [14]: 1.76

SMILES: O=C(O)c1cc(Oc2ccc(C(F)(F)F)cc2Cl)ccc1[N+](=O)[O-]
- logP [17]: 4.26

SMILES: Cc1cn([C@H]2C[C@H](O)[C@@H](CO)O2)c(=O)[nH]c1=O
- logP [25]: -1.04

SMILES: S=c1ssc2c1CCCCCCCCCCCCC2
- logP [7]: 7.18

SMILES: Clc1cc2oc3cc(Cl)c(Cl)c(Cl)c3c2c(Cl)c1Cl
- logP [22]: 7.57

SMILES: CCCC(=O)OCOc1ccccc1C(N)=O
- logD [1]: 1.66

SMILES: CCOCCOCCOP(=O)(N1CC1)N1CC1
- logP [10]: 0.1

SMILES: CC1=C(C)C(O)N(c2ccc(C(F)(F)F)c(Cl)c2)C1=O (stereo not drawn)
- logP [15]: 3.53

SMILES: CC(C)OC(=O)CSc1ccccc1[N+](=O)[O-]
- logP [3]: 2.76

SMILES: CCC(C)C(NC(=O)C(=O)OCC1OC(n2cc(C)c(=O)[nH]c2=O)CC1N=[N+]=[N-])C(=O)O (stereo not drawn)
- logP [25]: 1.15

SMILES: CC(=O)CC(=O)Nc1ccccc1
- logP [18]: 1.04
